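Five compound concentrations were applied to cells in 96-well plates for 48 hours; endpoints were derived by simple linear interpolation of the resulting dose-response curve. TGI marks complete inhibition of growth.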
Columns and labels:
Assay in all cases: NCI anticancer screen, dose series, 48 h
SF-295 CNS = test system: SF-295 CNS
LXFL 529 NSCLC = test system: LXFL 529 NSCLC
HOP-62 NSCLC = test system: HOP-62 NSCLC
RXF 393 renal = test system: RXF 393 renal
HOP-92 NSCLC = test system: HOP-92 NSCLC
CAKI-1 renal = test system: CAKI-1 renal
OVCAR-4 ovarian = test system: OVCAR-4 ovarian
COLO 205 colon = test system: COLO 205 colon
SW-620 colon = test system: SW-620 colon
SK-MEL-2 melanoma = test system: SK-MEL-2 melanoma
SNB-19 CNS = test system: SNB-19 CNS
SF-268 CNS = test system: SF-268 CNS
NCI-H226 lung = test system: NCI-H226 lung
OVCAR-8 ovarian = test system: OVCAR-8 ovarian
786-0 renal = test system: 786-0 renal
EKVX NSCLC = test system: EKVX NSCLC
ACHN renal = test system: ACHN renal
OVCAR-5 ovarian = test system: OVCAR-5 ovarian
UO-31 renal = test system: UO-31 renal
DMS 114 small cell lung = test system: DMS 114 small cell lung
SNB-75 CNS = test system: SNB-75 CNS
HCC-2998 colon = test system: HCC-2998 colon
SNB-78 CNS = test system: SNB-78 CNS
MALME-3M melanoma = test system: MALME-3M melanoma
KM20L2 colon = test system: KM20L2 colon
SF-539 CNS = test system: SF-539 CNS
NCI-H23 lung = test system: NCI-H23 lung
TK-10 renal = test system: TK-10 renal
SN12C renal = test system: SN12C renal
KM12 colon = test system: KM12 colon
NCI-H522 lung = test system: NCI-H522 lung
DMS 273 small cell lung = test system: DMS 273 small cell lung
LOX IMVI melanoma = test system: LOX IMVI melanoma
SK-MEL-28 melanoma = test system: SK-MEL-28 melanoma
NCI-H460 lung = test system: NCI-H460 lung
SR leukemia = test system: SR leukemia
U251 CNS = test system: U251 CNS
UACC-257 melanoma = test system: UACC-257 melanoma
A549 NSCLC = test system: A549 NSCLC
OVCAR-3 ovarian = test system: OVCAR-3 ovarian
HL-60(TB) leukemia = test system: HL-60(TB) leukemia
M14 melanoma = test system: M14 melanoma
HT29 colon = test system: HT29 colon
CCRF-CEM leukemia = test system: CCRF-CEM leukemia
HCT-116 colon = test system: HCT-116 colon
SK-OV-3 ovarian = test system: SK-OV-3 ovarian
IGROV1 ovarian = test system: IGROV1 ovarian
DLD-1 colon = test system: DLD-1 colon
M19-MEL melanoma = test system: M19-MEL melanoma
MOLT-4 leukemia = test system: MOLT-4 leukemia
RPMI-8226 leukemia = test system: RPMI-8226 leukemia
XF 498 CNS = test system: XF 498 CNS
K-562 leukemia = test system: K-562 leukemia
SK-MEL-5 melanoma = test system: SK-MEL-5 melanoma
UACC-62 melanoma = test system: UACC-62 melanoma

## c1ccc2nc(-c3ccc4c(c3)OCO4)ccc2c1
SF-295 CNS
  TGI: > 100 µM
LXFL 529 NSCLC
  TGI: > 100 µM
HOP-62 NSCLC
  TGI: 79.5 µM
RXF 393 renal
  TGI: 58.9 µM
HOP-92 NSCLC
  TGI: 19 µM
CAKI-1 renal
  TGI: > 100 µM
OVCAR-4 ovarian
  TGI: > 100 µM
COLO 205 colon
  TGI: > 100 µM
SW-620 colon
  TGI: > 100 µM
SK-MEL-2 melanoma
  TGI: > 100 µM
SNB-19 CNS
  TGI: > 100 µM
SF-268 CNS
  TGI: > 100 µM
NCI-H226 lung
  TGI: 97.6 µM
OVCAR-8 ovarian
  TGI: > 100 µM
786-0 renal
  TGI: > 100 µM
EKVX NSCLC
  TGI: > 100 µM
ACHN renal
  TGI: > 100 µM
OVCAR-5 ovarian
  TGI: > 100 µM
UO-31 renal
  TGI: 93.3 µM
DMS 114 small cell lung
  TGI: 67.5 µM
SNB-75 CNS
  TGI: > 100 µM
HCC-2998 colon
  TGI: > 100 µM
SNB-78 CNS
  TGI: > 100 µM
MALME-3M melanoma
  TGI: 68 µM
KM20L2 colon
  TGI: > 100 µM
SF-539 CNS
  TGI: > 100 µM
NCI-H23 lung
  TGI: > 100 µM
TK-10 renal
  TGI: > 100 µM
SN12C renal
  TGI: > 100 µM
KM12 colon
  TGI: > 100 µM
NCI-H522 lung
  TGI: > 100 µM
DMS 273 small cell lung
  TGI: 62.8 µM
LOX IMVI melanoma
  TGI: 82.7 µM
SK-MEL-28 melanoma
  TGI: > 100 µM
NCI-H460 lung
  TGI: > 100 µM
SR leukemia
  TGI: 43.9 µM
U251 CNS
  TGI: > 100 µM
UACC-257 melanoma
  TGI: 48.7 µM
A549 NSCLC
  TGI: > 100 µM
OVCAR-3 ovarian
  TGI: 71.1 µM
HL-60(TB) leukemia
  TGI: > 100 µM
M14 melanoma
  TGI: > 100 µM
HT29 colon
  TGI: 79.7 µM

## CCc1ccccc1NC(=O)C1=C(C)NC(C)=C(C(=O)Nc2c(CC)cccc2CC)C1c1ccc2c(c1)OCO2 (centres undefined)
SF-295 CNS
  TGI: 48.5 µM
LXFL 529 NSCLC
  TGI: 33 µM
HOP-62 NSCLC
  TGI: 35 µM
RXF 393 renal
  TGI: 25.4 µM
HOP-92 NSCLC
  TGI: 36.4 µM
CAKI-1 renal
  TGI: 39.7 µM
OVCAR-4 ovarian
  TGI: 35.9 µM
COLO 205 colon
  TGI: 44.1 µM
SW-620 colon
  TGI: 43.2 µM
SK-MEL-2 melanoma
  TGI: 29.5 µM
CCRF-CEM leukemia
  TGI: 51.4 µM
SNB-19 CNS
  TGI: 76.6 µM
SF-268 CNS
  TGI: 57.6 µM
NCI-H226 lung
  TGI: 43.4 µM
OVCAR-8 ovarian
  TGI: 84.5 µM
HCT-116 colon
  TGI: 30.6 µM
786-0 renal
  TGI: 34.8 µM
EKVX NSCLC
  TGI: 69.4 µM
SK-OV-3 ovarian
  TGI: > 100 µM
ACHN renal
  TGI: 35.1 µM
OVCAR-5 ovarian
  TGI: 36.1 µM
UO-31 renal
  TGI: 29.8 µM
DMS 114 small cell lung
  TGI: 53.5 µM
SNB-75 CNS
  TGI: > 100 µM
HCC-2998 colon
  TGI: 30.2 µM
IGROV1 ovarian
  TGI: 94.7 µM
SNB-78 CNS
  TGI: 81.7 µM
MALME-3M melanoma
  TGI: 32.5 µM
KM20L2 colon
  TGI: 39.3 µM
SF-539 CNS
  TGI: 40.4 µM
NCI-H23 lung
  TGI: 31.2 µM
TK-10 renal
  TGI: 53.5 µM
SN12C renal
  TGI: 74.3 µM
KM12 colon
  TGI: 30.5 µM
NCI-H522 lung
  TGI: 30.9 µM
DLD-1 colon
  TGI: 51.3 µM
LOX IMVI melanoma
  TGI: 35.1 µM
SK-MEL-28 melanoma
  TGI: 36.6 µM
NCI-H460 lung
  TGI: 33.8 µM
U251 CNS
  TGI: 30 µM
M19-MEL melanoma
  TGI: 54.7 µM
UACC-257 melanoma
  TGI: 35.4 µM
A549 NSCLC
  TGI: 39.2 µM
OVCAR-3 ovarian
  TGI: 38.4 µM
MOLT-4 leukemia
  TGI: 57.5 µM
HL-60(TB) leukemia
  TGI: 58.4 µM
M14 melanoma
  TGI: 33.5 µM
RPMI-8226 leukemia
  TGI: 41.3 µM
XF 498 CNS
  TGI: 47.5 µM
HT29 colon
  TGI: 32.2 µM
K-562 leukemia
  TGI: 58.7 µM
SK-MEL-5 melanoma
  TGI: 28.5 µM

## Cc1c(-c2c(C)c(=O)c3c(C(C)C)c(=O)c(=O)c(C=O)c-3c2=O)c(O)c2c(C=O)c(O)c(O)c(C(C)C)c2c1O
SF-295 CNS
  TGI: 3.94 µM
LXFL 529 NSCLC
  TGI: 12.8 µM
HOP-62 NSCLC
  TGI: 14.3 µM
RXF 393 renal
  TGI: 6.99 µM
HOP-92 NSCLC
  TGI: 7.49 µM
OVCAR-4 ovarian
  TGI: 12 µM
COLO 205 colon
  TGI: 11.8 µM
SK-MEL-2 melanoma
  TGI: 3.68 µM
CCRF-CEM leukemia
  TGI: 5.07 µM
SNB-19 CNS
  TGI: 17.6 µM
SF-268 CNS
  TGI: 18.8 µM
HCT-116 colon
  TGI: 7.81 µM
SK-OV-3 ovarian
  TGI: 13 µM
ACHN renal
  TGI: 10.3 µM
OVCAR-5 ovarian
  TGI: 7.82 µM
UO-31 renal
  TGI: 5.5 µM
DMS 114 small cell lung
  TGI: 5.82 µM
SNB-75 CNS
  TGI: 26.2 µM
IGROV1 ovarian
  TGI: 11.3 µM
SNB-78 CNS
  TGI: 6.78 µM
MALME-3M melanoma
  TGI: 15.2 µM
SF-539 CNS
  TGI: 8.87 µM
NCI-H23 lung
  TGI: 10.5 µM
UACC-62 melanoma
  TGI: 8.14 µM
KM12 colon
  TGI: 4.9 µM
NCI-H522 lung
  TGI: 15.7 µM
SK-MEL-28 melanoma
  TGI: 16.4 µM
NCI-H460 lung
  TGI: 11.8 µM
SR leukemia
  TGI: 17.1 µM
U251 CNS
  TGI: 11.3 µM
M19-MEL melanoma
  TGI: 15.4 µM
UACC-257 melanoma
  TGI: 13.6 µM
OVCAR-3 ovarian
  TGI: 7.02 µM
MOLT-4 leukemia
  TGI: 11.3 µM
HL-60(TB) leukemia
  TGI: 11.1 µM
M14 melanoma
  TGI: 4.24 µM
RPMI-8226 leukemia
  TGI: 9.9 µM
HT29 colon
  TGI: 4.87 µM
K-562 leukemia
  TGI: 10.7 µM

Reference: PubChem BioAssay (NCI)
